The record followed here is patent US20250195498A1, “INHIBITOR OF CELLULAR PURINE NUCLEOTIDE SALVAGE PATHWAY ENZYME FOR USE IN THE TREATMENT AND/OR PREVENTION OF HELICOBACTER PYLORI INFECTION AND/OR DISEASE ASSOCIATED WITH SUCH INFECTION AND PHARMACEUTICAL COMPOSITION COMPRISING THE SAME” (UNIWERSYTET WARSZAWSKI, priority 2022, published 2025).

Where two headings read alike, the source gives them in different places.

Test [1] concerns H. pylori strain M91 (MTZ + CLR resistant). Nature of the test: Growth curve method / MIC, resistant strain M91. The format is cell-based, Helicobacter pylori. Conditions: Helicobacter pylori, strain M91, MTZ + CLR resistant. How it is done: The representative PNP inhibitor from H. pylori included in this study was immucillin A. The experiment was conducted using the growth curve method (two-fold serial dilutions in liquid medium). The tested H. pylori strains were cultured in Petri dishes with BHI solid medium supplemented with 10% FBS and 1% H. pylori Selective Supplement antibiotic kit, in anaerostats under microaerophilic conditions (5% 02, 10% CO2, 85% N2) at 37° C. for 3 days. Liquid culture of H. pylori was conducted overnight with shaking at 37° C. under microaerophilic conditions in BHI medium supplemented with 10% FBS and 1% H. pylori Selective Supplement antibiotic kit. Subsequently, for the essential experiment of determining the minimum inhibitory concentration (MIC), double strengthened liquid BHI medium was prepared, that is, supplemented with 20% FBS and a 2% set of H. pylori Selective Supplement antibiotics.
Bacterial proliferation inhibition experiments were carried out in 24-deep-well 2 ml flat-bottomed plates at a solution volume per well of 0.5 ml. In a single well, double strengthened (relative to the concentration planned for testing) solutions of the test inhibitor and double strengthened liquid BHI medium inoculated with H. pylori (10^4-10^5 CFU/ml in the final volume in the well, corresponding to the optical density of the culture OD600=0.05) were mixed together in a 1:1 ratio.
Kanamycin at a concentration of 25 μg/ml (Irie et al., 1997) was used as a positive control, while Mili-Q deionized water and BHI medium not inoculated with bacteria were used as negative controls. Plates were shaken at 37° C., under microaerophilic conditions. […] After 24 hours, the OD600 of samples containing the negative control, i.e. with Mili-Q deionized water, was about 1.2-1.4, corresponding to a bacterial concentration of about […].
In addition, the method proposed by Knezevic et al. (2018) was used to check whether the observed OD600 was from live bacterial cells. For this purpose, an equal volume of Christensen's double strength urea broth (that is, containing twice the concentration of all components) was added to the wells after incubation, and the plates were additionally incubated for 4 hours in an oxygen atmosphere at 37° C. During incubation, in wells with urease produced by live bacteria, urea is converted to ammonia and carbon dioxide, changing the pH of the solution and thus the colour of the phenol red indicator contained in the medium (from orange to purple).
All experiments were performed in triplicate.
The antibacterial activity of two compounds, mefloquine (in the form of hydrochloride) and quinine, described in the literature as potent in vitro inhibitors of the PNP enzyme from Plasmodium falciparum (Dziekan et al., 2019), was tested. Using a two-fold serial dilution method in liquid medium (as described in Example 3), the MIC values for mefloquine and quinine were determined against clinical H. pylori strains resistant to MTZ, CLR and MTZ+CLR (M26, M91, M92 and M93), as well as the reference H. pylori strain 26695. Four clinical H. pylori strains isolated from adults, from primary infections (the subjects had never previously been treated against H. pylori infection) were tested. These strains come from the collection of the Department of Microbiology of the Medical University of Wroclaw and were obtained due to collaboration with Prof. Grażyna Gościniak, MD, PhD. The tested compounds belong to organic substances and are soluble in DMSO. The maximum tested concentration of quinine in H. pylori culture was 0.56 mM, and that of mefloquine was 2.25 mM. […] On each occasion, the effect of DMSO alone on the growth of the H. pylori strains tested was also checked. […] Kanamycin was used as a positive control and Mili-Q deionised water as a negative control. All experiments were carried out in triplicate. […]

Test [2] addresses T1, AdSS from H. pylori strain 26695 (Helicobacter pylori, UniProt P56137).
T1 construct: made in house; host or cells: E. coli BL21 (DE3)
T1 sequence (P56137 1-411): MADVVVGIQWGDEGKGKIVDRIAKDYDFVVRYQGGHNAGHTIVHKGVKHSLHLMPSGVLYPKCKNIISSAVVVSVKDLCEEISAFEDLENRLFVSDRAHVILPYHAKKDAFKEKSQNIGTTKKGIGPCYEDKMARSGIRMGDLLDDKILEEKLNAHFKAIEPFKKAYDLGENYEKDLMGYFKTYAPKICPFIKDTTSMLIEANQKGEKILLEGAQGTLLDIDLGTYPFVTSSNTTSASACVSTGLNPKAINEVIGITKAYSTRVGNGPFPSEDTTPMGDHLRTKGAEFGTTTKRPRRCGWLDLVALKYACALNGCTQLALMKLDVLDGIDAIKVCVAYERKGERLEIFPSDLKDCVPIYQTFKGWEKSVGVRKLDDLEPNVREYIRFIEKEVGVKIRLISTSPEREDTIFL
As to the kind of experiment: AdSS enzyme activity assay (adenylosuccinate formation, 280 nm). The class given is biochemical. Conditions: for AdSS activity after incubation: 1.23 U/mg in the absence of PLP. How it is done: Enzymatic activity measurements were carried out in the similar manner as described in Bubić et al. (2018), at 25° C., in cuvettes with an optical path length of 1 cm containing 1 ml of reaction mixture consisting of 20 mM Hepes/NaOH buffer pH 7.7, 1 mM MgSO4 and the substrates, GTP, IMP and Asp. Saturating concentrations of substrates, namely GTP: 0.06 mM, IMP: 0.15 mM and Asp: 5 mM, were used to measure specific activity. The extinction coefficient at 280 nm of 1.17×10^4 M^−1 cm^−1 (adenylosuccinate formation) was used to calculate the concentration of the product formed (Rudolph and Fromm 1969). One unit (U) of AdSS specific activity is defined as μmol of adenylosuccinate produced per minute at 25° C. Specific activity is expressed as units of enzymatic activity per mg of protein (U/mg).
Inhibition of AdSS by PLP was examined first at saturation with all enzyme substrates and with increasing concentrations of the PLP inhibitor.
To determine the extent to which PLP-induced inactivation develops over time, the enzyme at low concentration (0.022 μM) was incubated at 25° C. in Hepes/NaOH buffer pH 7.0, in the presence of 1.11 mM MgSO4, 5.55 mM Asp, 167 μM IMP and PLP at various concentrations (ranging between 0.03 μM and 8.1 μM). The mixture contained all components necessary for the reaction with the exception of GTP, which, according to Dong and Fromm (1990), competes with PLP. Aliquots of 900 μl were taken from the incubated mixture at specified time intervals, placed in a cuvette and 100 μl of 0.6 mM GTP solution was added to initiate the reaction. The enzyme activity was determined and analysed in the known manner as described above.
Exponential decays were fitted to the data obtained for each concentration and the reaction rate constant of the inactivation process, k, and the residual enzymatic activity observed when the system reached equilibrium, A∞, were obtained as fitting parameters. From these parameters, the half-life of the inactivation process activity, t1/2, was calculated. The dependence of these three parameters on PLP concentration is shown in the lower panel of FIG. 12.
The inhibition of AdSS from H. pylori by pyridoxal (PI-h) was studied at saturation with all enzyme substrates and with increasing concentrations of the inhibitor, similar to that for PLP in Example 10a).

Where [3] appears, read: 8.1 μM PLP, about 10 minutes of incubation without GTP.

Turning to `Cc1ncc(CO)c(C=O)c1O.Cl` [PI-h, pyridoxal hydrochloride], the minimum inhibitory concentration (MIC) in test [1] (read-out: MIC) came out at 255 µg/mL; in test [1] (read-out: MIC (Table 7)), 1.25 µM. The “effect on AdSS activity” value in test [2] (400 μM (maximum used), saturating substrates) is listed as “no effect on AdSS activity”.
`Cc1ncc(COP(=O)(O)O)c(C=O)c1O` [PLP, pyridoxal 5′-phosphate]: the values for the minimal inhibitory concentration (MIC) in test [1] (read-out: MIC) and in test [1] (read-out: MIC (Table 7)) were 309 to 618 µg/mL and 1.25 to 2.5 µM, respectively. In addition, the IC50 in test [2] stood at 13.3 µM. Further, the “AdSS activity after incubation” value was determined as 0.48 U/mg in test [2] (0.03 μM PLP, about 4 hours of incubation without GTP) and 0.04 U/mg in test [2] (setting [3]). In addition, the “inactivation of AdSS” value in test [2] (0.03 μM PLP, enzyme 0.022 μM incubated without GTP, 25° C.) is “more than 50%”. Moreover, in test [2] (1 μM PLP, incubation without GTP), the “inactivation of the enzyme” value was 90%. Further, in test [2] (setting [3]), the “decrease in AdSS activity” value is listed as “about 97%”. For the same compound, the “decrease of enzyme activity” value in test [2] (PLP above about 100 μM, saturating substrates, 25° C., pH 7.7) turned out to be 86%.
